{"source": "patent US6538033B2", "about": "“Nitric oxide donor compounds” (Huntington Medical Research Institutes, priority 2000, dated 2003)", "key": {"platelet aggregation": {"tested_on": "platelet aggregation", "test": "Platelet aggregation in vitro, thrombin as agonist (nephelometric aggregometer)", "type": "cell-based, New Zealand rabbits", "conditions": "rabbit washed platelets; B-NOD 10, 100 or 1000 μM, 10 min preincubation; thrombin 0.04 to 0.14 U/ml", "experimental": "Healthy male New Zealand rabbits were anesthetized with pentobarbital (10 mg/kg iv), ketamine (40 mg/kg im), xylazine (10 mg/kg im) and atropine (0.5 mg im). They were […] and mechanically ventilated with 95% oxygen (rate 40 strokes/min, tidal volume 25 ml). The heart was exposed with a median sternotomy, blood (40 ml) was collected from the right ventricle and washed platelets were prepared as described above. Platelet aggregation was monitored by a standard nephelometric technique in which 0.5 ml of platelet suspension (2×10^8 platelets/ml) were incubated at 37° C. and stirred at 1000 rpm in an aggregometer (Model PAP-3, Bio/Data corporation, Horsham, Pa.). The antiaggregant effects of B-NOD (10, 100 or 1000 μM) were tested by incubating platelets with B-NOD at 37.8° C. before the addition of thrombin. Incubation was carried out for 10 min. Thrombin was used as an agonist at relatively low concentrations (0.04 to 0.14 U/ml) to obtain submaximal aggregation in order to evaluate the drug's inhibitory effect."}, "[1]": {"test": "Nitric oxide generation in vivo, plasma NOx after oral administration", "design": "species or system New Zealand White male rabbits", "conditions": "80 mg/kg orally, rabbits", "experimental": "(§1) New Zealand White male rabbits were given 80 mg/kg of B-NOD. B-NOD was dissolved in 2 ml DMSO, suspended in 8 ml carboxymethylcellulose (0.5%) and administered orally. Blood (1 ml) was drawn from the ear vein using heparinized syringes before and 10 minutes, 30 minutes, 1 hour, 3 hours, 5 hours, 7 hours, and 24 hours following B-NOD administration. Blood samples were centrifuged at 1200 g for 10 minutes and deproteinized by an ultrafiltration device (MPS Micropartition, Millipore Corporation, Bedford, Mass.) and centrifuged again at 2500 g for 90 minutes. Plasma NOx was measured by chemiluminescence as described above.\n(§2) Heart rate and systolic and diastolic blood pressures were measured through a 22 gauge by one inch catheter inserted into the ear artery connected to a DIGI-MED™Heart Performance Analyzer 100 (Louisville, Ky.). Determination of blood pressure and heart rate were carried out prior to and 1, 3, 5 hours after B-NOD administration. FIG. 4 illustrates concentrations of NOx in plasma of animals up to 24 hours following administration of B-NOD."}, "[2]": {"test": "Nitric oxide generation in vitro, spontaneous release in the absence of washed platelets (chemiluminescence)", "conditions": "without platelets, B-NOD 10, 100 or 1000 μM", "experimental": "(§3) Venous blood was collected from healthy volunteers who had not previously been taking any drugs for at least two weeks; EDTA was used as an anticoagulant. Washed platelets were prepared as described in Radomski, M. and Moncada, S. (1983) An improved method for washing of human platelets with prostacyclin. Thromb Res 83,383-389, the disclosure of which is incorporated herein by reference, with some modifications. In brief, blood was centrifuged for 10 minutes at 200 g, and the resultant platelet rich plasma was removed. It was recentrifuged at 500 g for 10 minutes. The supernatant was discarded and the pellet was resuspended in Tyrode's solution. Platelet concentration was adjusted to 2×10^8 platelets/ml using a Coulter Counter (Model ZBI, Beckman-Coulter, Fullerton, Calif.). […]\n(§4) The supernatant was analyzed for nitric oxide generation by chemiluminescence. […] Chemiluminescence was measured using a reducing system consisting of a ferrocene derivative dissolved in acetonitrile containing 1% perchloric acid, as described in Termin, A., Hoffmann, M. and Bing, R. J. (1992) A simplified method for the determination of nitric oxide in biological solutions. […] Under this condition, NO2 in the injected samples was reduced to NO and detected by chemiluminescence with the NO-analyzer (270 B, Sievers Res. Inc., Boulder, Colo.). […]"}, "[3]": {"tested_on": "cGMP production in platelets", "test": "Platelet cGMP in vitro (acetylation enzyme immunoassay)", "type": "cell-based", "conditions": "human washed platelets; B-NOD 10, 100 or 1000 μM, 10 minutes", "experimental": "Washed platelets were prepared from human blood as described above. 400 μl aliquots were incubated in the presence of B-NOD (10, 100 or 1000 μM) or methanol for 10 minutes. Incubations were terminated by centrifugation at 1000 g and the supernatant was removed. Ice-cold phosphate buffer was added to the pellets, and the pellets were sonicated for 20 seconds. cGMP was measured using an acetylation enzyme immunoassay system (Biotrak, Piscataway, N.J.)."}, "washed platelets": {"tested_on": "washed platelets", "test": "Nitric oxide generation in vitro in the presence of washed platelets (chemiluminescence)", "type": "cell-based, human", "conditions": "B-NOD 10, 100 or 1000 μM", "experimental": "as §3, §4"}, "[4]": {"test": "Blood pressure and heart rate after oral administration", "type": "in vivo, New Zealand White male rabbits", "conditions": "80 mg/kg orally, rabbits; one, three and five hours following administration", "experimental": "as §1, §2\nSeveral NO donors are known to cause a fall in blood pressure, particularly when administered intravenously."}}, "data": [{"compound": "O=C(Oc1cccc(CO[N+](=O)[O-])c1)c1ccccc1O", "note": "[B-NOD, 3-(nitrooxymethyl)phenyl 2-hydroxybenzoate]", "values": [{"measurement": "inhibition of platelet aggregation as compared to the control", "setting": "platelet aggregation", "value": "approximately 25%"}, {"measurement": "NOx concentration in plasma after 24 hours", "setting": "[1]; 24 hours", "value": "returned to control values"}, {"measurement": "NOx concentration in plasma, course to seven hours", "setting": "[1]; seven hours following administration", "value": "plateaued for seven hours"}, {"measurement": "NOx concentration in plasma", "setting": "[1]; three hours following administration (increase from 59 before administration)", "value": 115, "unit": "µmol/L"}, {"measurement": "NO production (NOx)", "setting": "[2]", "value": "increased NO production in a dose-dependent manner"}, {"measurement": "maximal NO release", "setting": "[2]; 37° C., 10 minutes", "value": 98, "unit": "µmol/L"}, {"measurement": "cyclic GMP production in platelets", "setting": "[3]", "value": "increased cyclic GMP production in a dose-dependent manner"}, {"measurement": "maximal NO release", "setting": "washed platelets; in the presence of platelets (2×10^8 platelets/ml), 10 minutes", "value": 156, "unit": "µmol/L"}, {"measurement": "NO production (NOx)", "setting": "washed platelets; with platelets", "value": "increased NO production in a dose-dependent manner"}, {"measurement": "diastolic pressure", "setting": "[4]", "value": "did not affect"}, {"measurement": "heart rate", "setting": "[4]", "value": "failed to change"}, {"measurement": "systolic pressure", "setting": "[4]", "value": "did not affect"}]}]}
